Experiments:
[1] = system: cJun bZIP / TRE sites in TRE-mDHFR gene; assay: Transcription block survival (TBS) colony counting in E. coli; type: cell-based, human cJun, expressed in E. coli
Procedure: Figure 3 Transcription block survival (TBS) assay to derive functionally active cJun inhibitors. (A) Schematic illustrating the design and operation of TBS. (B) Controlled numbers of E. coli expressing the indicated proteins were plated on selective media and growth rates were calculated by counting colony-forming units. […] (2) A small effect on colony numbers is observed when cJun bZIP is additionally expressed. (3) TRE-mDHFR can replace the inhibited ecDHFR with colony count lower than for WT as expected. […] Although (6) cFos LZ and (7) FosW are known cJun-binders, they are unable to effectively dissociate the cJun bZIP from TRE DNA. However, (8) A-FosW and the TBS-derived hit (9) HingeW remove TRE-mDHFR transcriptional blocks to restore cell survival. Bar charts represent averages of three experimental repeats. Errors are shown as one standard deviation. Selected P values from a t-test are indicated (*P ≤ 0.05; **P ≤ 0.01; ****P ≤ 0.0001) with values for all possible comparisons within the bar chart reported in Figure S7. Serial dilutions were used to quantify colony numbers where required. Also shown are representative plate images and schematics to illustrate the effect upon TRE-mDHFR transcription. […]
Library Construction and TBS Assay: Library inserts were produced using PCR fill-in reactions from synthesised primers (Sigma) with degenerate codons at the desired positions to produce the correct residue options. The library was subcloned using SacI and AscI sites into the pET24a plasmid containing A-FosW. The primers used were cJun- […]
-3’ and cJun-Hinge-Lib_R: 5’-
-3’. The library DNA was transformed into NEB 10-beta electrocompetent E. coli cells. The following equation was utilised to determine library […]
coverage by the number of single colonies: where E is the percentage […] of the library missing, m is the number of colonies collected and n is the library size. This […]
covered. Library DNA quality was assessed by sequencing both the DNA pool and a number of single colonies to show degenerate codons in the correct positions in the pool and to show a diversity of library members from single colonies. The pool of library DNA was transformed into BL21 Gold cells already containing pES300d-TRE-mDHFR and […]
(§1) µM) alongside ampicillin, kanamycin and chloramphenicol to maintain the required plasmids, and IPTG (1 mM) to induce protein expression. The library transformants were […]
however a lower stringency is used initially before selection is increased in later steps.
Colonies from this first round of selection were pooled and serially grown in liquid culture at starting OD600 of 0.05 and grown at 37°C with shaking at 200 rpm until the OD600 […]
increased to the optimum 4 µM in subsequent passages. Bacteria containing the most effective functional antagonists were expected to produce higher levels of TRE-mDHFR which provides a growth advantage, and these will dominate the culture. At each passage step, a sample of the culture was plated on LB agar (supplemented with antibiotics to maintain plasmids) to select and sequence individual colonies, and a DNA pool was also sequenced. This allows the occurrence of library members to be monitored as winner sequences are selected for. Assay Validation experiments utilised a modified assay methodology whereby overnight cultures from glycerol stocks of the Control Strains (Figure S6) were diluted to OD600=0.5 and 50 µL was plated on a selective M9 minimal […]

[2] = CD spectroscopy of single components (helicity); type: physicochemical; conditions: 20 °C, 10 μM, 150 mM potassium phosphate, 150 mM KF, 5 mM TCEP, pH 7.4
Procedure: Figure 5 TBS winner peptide HingeW binds cJun preferentially over A-FosW. CD spectra (20 °C) show the binding of cJun to either (A) HingeW or (B) A-FosW. […] However, the effect is larger for HingeW, indicating a greater increase in peptide helicity. Similarly, the thermal denaturation of cJun bound to either (C) HingeW or (D) A-FosW is right-shifted from the average of the component peptide denaturation profiles. […] CD dimer exchange spectra show (E) an increase in helicity when HingeW is mixed with the A-FosW/cJun heterodimer as the HingeW exchanges with the A-FosW due to the binding preference of cJun for HingeW and (F) no shift from the average is observed when A-FosW is mixed with the HingeW/cJun heterodimer, indicating no change in dimer populations. Arrows are shown to highlight the shift from the average at 190 and 222 nm. In all experiments, the total sample peptide concentration was fixed to 10 μM, using equimolar concentrations of each component peptide to remove concentration-dependent effects. […]
as §1
increased to the optimum 4 µM in subsequent passages. […] This allows the occurrence of library members to be monitored as winner sequences are selected for. […]

Substance	colony numbers restored relative to TRE-mDHFR only ([1]; TRE-mDHFR + cJun bZIP + peptide, M9 + 4 μM TMP + 1 mM IPTG, average of three experimental repeats) [%]	Fraction helicity of single component [2] [%]	reduction in colony counts on expression of cJun bZIP with TRE-mDHFR ([1]; M9 minimal media + 4 μM TMP + 1 mM IPTG, TRE-mDHFR + cJun bZIP, P ≤ 0.0001, average of three experimental repeats) [fold]	reduction in colony counts on expression of cJun bZIP without TRE sites (WT-mDHFR) ([1]; M9 minimal media + 4 μM TMP + 1 mM IPTG, WT-mDHFR + cJun bZIP vs WT-mDHFR, P ≤ 0.05, three experimental repeats) [fold]
LEQRAEELARENEELEKEAEELEQELDELQAEIEQLEERNYALRKEIEDLQKQLEKL [A-FosW, N-terminal AS and C-terminal GAP caps, 6xHis-tagged]	60	40.1	–	–
cJun bZIP: human cJun bZIP domain, Arg252 to Leu308 (target protein)	–	14.0	21	1.3

Reference: publication PMC9088798, “An Approach to Derive Functional Peptide Inhibitors of Transcription Factor Activity” (JACS Au, 2022)
